Measurements reported in patent US20220211796A1, “PEPTIDE ANTIBIOTICS AND METHODS OF USE THEREOF” (priority 2019, published 2022).
Values after ≈ are worked out from the molar mass of the structure shown. Numbered stars: 1 amine (or outer) side, 2 acyl side, 3 side chain; on linkers, the order of the positions; unused ones are H or OH. Bridge positions count the residues as written; N and C are the ends. Square brackets hold non-standard residues; d marks the D form. Peptide text beside a SMILES is read from it. TBMB = c1c(C[*:1])cc(C[*:3])cc1C[*:2]

Columns and labels:
Assay in all cases: microbe, parasite or virus in culture
[1] = test system: high level vancomycin resistant E. faecium (vanA) ATCC 51559
Experimental: (§1) The L-peptides identified from five different phage display libraries were catalogued as described previously and selected sequences were synthesized in D-enantiomeric form by SPPS for further investigation in several biological assays.
(§2) MICs were determined according to a 96-well microdilution protocol outlined by the Clinical and Laboratory Standard Institute (CLSI) guideline with modifications for peptide antibiotics reported by Wiegand et al.^35 Two-fold serial peptide dilutions were performed to go from 2560 μg/ml to 5 μg/ml in0.2% BSA and 0.01% acetic acid buffer in 96-well polypropylene plates (COSTAR, #3879). Dilution of bacterial suspensions (1:200) of different bacterial strains that were grown until 0.5 McFarland standard were prepared to obtain a final inoculum concentration of 8×10^5 CFU/ml in Mueller-Hinton broth.

S. aureus ATCC 6538 = test system: S. aureus ATCC 6538
Experimental: as §1, §2

B. subtilis ATCC 6633 = test system: B. subtilis ATCC 6633
Experimental: as §1, §2

[2] = test system: low level vancomycin resistant E. faecium (vanB) ATCC 51299
Experimental: as §1, §2

E. faecalis ATCC 29121 = test system: E. faecalis ATCC 29121
Experimental: as §1, §2

E. coli ATCC 25992 = test system: E. coli ATCC 25992
Experimental: as §1, §2

[3] = test system: Methicillin-resistant S. aureus (MRSA) ATCC 43300
Experimental: as §1, §2

[4] = Table 5, low level vancomycin resistant E. faecium ATCC 51299

Row | Structure (SMILES) | MIC VRE (vanA) ([1]; ATCC 51559) [µg/mL] | MIC S. aureus (S. aureus ATCC 6538; ATCC 6538) [µg/mL] | MIC B. subtilis (B. subtilis ATCC 6633; ATCC 6633) [µg/mL] | MIC VRE (vanB) [2, 4] [µg/mL] | MIC E. faecalis (E. faecalis ATCC 29121; ATCC 29121) [µg/mL] | MIC E. coli (E. coli ATCC 25992; ATCC 25992) [µg/mL] | MIC MRSA ([3]; ATCC 43300) [µg/mL] | also measured
1 | CC(C)[C@H]1NC(=O)CNC(=O)[C@@H](Cc2ccccc2)NC(=O)[C@H]2CSCc3cc(cc(c3)CSC[C@H](C(N)=O)NC(=O)[C@@H](CO)NC(=O)[C@@H](CCC(N)=O)NC1=O)CSC[C@@H](N)C(=O)NCC(=O)N[C@H](C)C(=O)N[C@H](CCC(N)=O)C(=O)NCC(=O)N2 [P20, CGAQGCFGVQSC] (H-[dC]G[dA][dQ]G[dC][dF]G[dV][dQ][dS][dC]-NH2; linker 1-6-12 via TBMB) |  |  |  |  |  |  |  | MIC VRE (vanA) ([1]; Table 6, high level vancomycin resistant E. faecium ATCC51559): >256 µg/mL; MIC S. aureus (S. aureus ATCC 6538; Table 6, S. aureus ATCC6538): 32 µg/mL (≈ 25.1 µM); MIC B. subtilis (B. subtilis ATCC 6633; Table 6, B. subtilis ATCC6633): 32 µg/mL (≈ 25.1 µM); MIC VRE (vanB) ([2]; Table 6, low level vancomycin resistant E. faecium ATCC51299): 256 µg/mL (≈ 201 µM); MIC E. faecalis (E. faecalis ATCC 29121; Table 6, E. faecalis ATCC29121): 256 µg/mL (≈ 201 µM); MIC E. coli (E. coli ATCC 25992; Table 6, E. Coli ATCC25992): >256 µg/mL; MIC MRSA ([3]; Table 6, MRSA ATCC43300): 256 µg/mL (≈ 201 µM)
2 | CC(C)C[C@@H](NC(=O)[C@@H](Cc1ccccc1)NC(=O)CNC(=O)[C@H](N)[C@H](C)O)C(=O)N[C@@H](C(=O)N[C@H](CC(N)=O)C(=O)N[C@@H](C(N)=O)C(C)C)C(C)C [P7, TGFLVNV] (H-[dT]G[dF][dL][dV][dN][dV]-NH2) | >256 | 64 (≈ 85.6 µM) | 32 (≈ 42.8 µM) | >256 | >256 | >256 | >256 | 
3 | CC[C@@H](C)[C@@H](NC(=O)[C@@H](Cc1ccc(O)cc1)NC(=O)[C@H](N)Cc1c[nH]cn1)C(=O)N[C@H](CC(=O)O)C(=O)N[C@H](Cc1ccccc1)C(=O)N[C@H](CCCNC(=N)N)C(=O)N[C@H](Cc1c[nH]c2ccccc12)C(N)=O [P8, HYIDFRW] (H-[dH][dY][dI][dD][dF][dR][dW]-NH2) | >256 |  | 32 (≈ 30.9 µM) | >256 | 64 (≈ 61.8 µM) | >256 | 64 (≈ 61.8 µM) | 
4 | CSCC[C@H]1NC(=O)[C@H]2CCCN2C(=O)[C@@H]([C@H](C)O)NC(=O)[C@@H](C)NC(=O)CNC(=O)[C@@H](CCCNC(=N)N)NC(=O)[C@H](N)CSSC[C@H](C(N)=O)NC(=O)[C@@H](CO)NC1=O [P10, CRGATPMSC] (H-[dC][dR]G[dA][dT][dP][dM][dS][dC]-NH2; disulfide 1-9) |  |  |  | >256 |  |  |  | MIC VRE (vanA) ([1]; Table 5, high level vancomycin resistant E. faecium ATCC 51559): >256 µg/mL; MIC S. aureus (S. aureus ATCC 6538; Table 5, S. aureus ATCC 6538): 128 µg/mL (≈ 139 µM); MIC B. subtilis (B. subtilis ATCC 6633; Table 5, B. subtilis ATCC 6633): 128 µg/mL (≈ 139 µM); MIC E. faecalis (E. faecalis ATCC 29121; Table 5, E. faecalis ATCC 29121): 256 µg/mL (≈ 278 µM); MIC E. coli (E. coli ATCC 25992; Table 5, E. coli ATCC 25992): >256 µg/mL; MIC MRSA ([3]; Table 5, MRSA ATCC 43300): 128 µg/mL (≈ 139 µM)
5 | CC[C@@H](C)[C@H]1NC(=O)[C@@H](CO)NC(=O)[C@H](N)CSSC[C@H](C(N)=O)NC(=O)[C@@H](Cc2c[nH]cn2)NC(=O)[C@@H]([C@H](C)O)NC(=O)[C@@H](CC(C)C)NC(=O)[C@@H](CO)NC(=O)[C@@H](CO)NC1=O [P11, CSISSLTHC] (H-[dC][dS][dI][dS][dS][dL][dT][dH][dC]-NH2; disulfide 1-9) | >256 | 32 (≈ 33.8 µM) | 32 (≈ 33.8 µM) | 64 (≈ 67.6 µM) | 32 (≈ 33.8 µM) | >256 | 64 (≈ 67.6 µM) | 
6 | CC(C)C[C@@H](NC(=O)[C@H](N)C(C)C)C(=O)N[C@@H](C(=O)N[C@H](CCCNC(=N)N)C(=O)N[C@H](CS)C(=O)N[C@H](CS)C(=O)NCC(N)=O)[C@H](C)O [P6, VLTRCCG] (H-[dV][dL][dT][dR][dC][dC]G-NH2) | >256 | 128 (≈ 171 µM) | 128 (≈ 171 µM) | >256 | >256 | >256 | >256 | 
